Values joined by “and” are separate entries in the source; they are usually repeats but may differ in a detail not shown here. Identical values can stand only once. Inconclusive results and toxic doses are left out.
Tested on: P388 leukemia ip, CD2F1 mice, survival T/C
Assay: NCI In Vivo Anticancer Drug Screen. Data for tumor model P388 Leukemia (intraperitoneal) in CD2F1 (CDF1) mice
Settings: endpoint: median survival time, higher = longer survival
How it was run: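 Mice carrying the transplanted tumor received test compound or vehicle. Survival was recorded in each group, and the value is the treated-group measurement divided by that of the vehicle-treated control group.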

[1] = dose: 60.0 mg/kg/injection, schedule: Q01DX005 (ip), vehicle: saline with Tween-80
[2] = dose: 120.0 mg/kg/injection, schedule: Q01DX005 (ip), vehicle: saline with Tween-80
[3] = dose: 240.0 mg/kg/injection, schedule: Q01DX005 (ip), vehicle: saline with Tween-80
[4] = dose: 50.0 mg/kg/injection, schedule: Q01DX005 (ip), vehicle: Klucel (hydroxypropylcellulose) (HPC)
[5] = dose: 100.0 mg/kg/injection, schedule: Q01DX005 (ip), vehicle: Klucel (hydroxypropylcellulose) (HPC)
[6] = dose: 200.0 mg/kg/injection, schedule: Q01DX005 (ip), vehicle: Klucel (hydroxypropylcellulose) (HPC)

With O=C1NC(=O)C2(N1)C(=O)c1cccc3cccc2c13 (stereo unspecified) the T/C (dose: 50.0 mg/kg/injection, schedule: Q01DX009 (ip), vehicle: distilled water + alcohol) was 100 % of control, the T/C (dose: 100.0 mg/kg/injection, schedule: Q01DX009 (ip), vehicle: distilled water + alcohol) was 102 % of control and the T/C (dose: 200.0 mg/kg/injection, schedule: Q01DX009 (ip), vehicle: distilled water + alcohol) was 95 % of control.

O=C(N/N=C/c1ccc(C(F)(F)F)cc1)c1ccncc1 was tested, and the T/C (dose: 15.0 mg/kg/injection, schedule: Q01DX005 (ip), vehicle: saline with Tween-80) was 106 % of control, the T/C (dose: 30.0 mg/kg/injection, schedule: Q01DX005 (ip), vehicle: saline with Tween-80) was 101 % of control and the T/C [1] was 101 % of control and 97 % of control. The T/C [2] was 100 % of control and the T/C [3] was 100 % of control.

With O=[N+]([O-])c1ccc(C(Cl)Cc2ccc(Cl)cc2)cc1 (stereo unspecified) the T/C [1] was 102 % of control, the T/C [2] was 90 % of control and the T/C [3] was 94 % of control.

In the case of CCC(=O)N(C)C(C)C(=O)OC1CC(=O)N(C)c2cc(cc(OC)c2Cl)CC(C)CCCC(OC)C2(O)CC(OC(=O)N2)C(C)C2OC12C (stereo unspecified), the T/C (dose: 1.56 micrograms/kg/injection, schedule: Q01DX009 (ip), vehicle: saline + alcohol) is reported as 106 % of control, the T/C (dose: 3.12 micrograms/kg/injection, schedule: Q01DX009 (ip), vehicle: saline + alcohol) is reported as 105 % of control and the T/C (dose: 6.25 micrograms/kg/injection, schedule: Q01DX009 (ip), vehicle: saline + alcohol) is reported as 110 % of control. The T/C (dose: 12.5 micrograms/kg/injection, schedule: Q01DX009 (ip), vehicle: saline + alcohol) was 108 % of control, the T/C (dose: 50.0 micrograms/kg/injection, schedule: Q01DX009 (ip), vehicle: saline + alcohol) was 105 % of control and the T/C (dose: 100.0 micrograms/kg/injection, schedule: Q01DX009 (ip), vehicle: saline + alcohol) was 109 % of control. The T/C (dose: 200.0 micrograms/kg/injection, schedule: Q01DX009 (ip), vehicle: saline + alcohol) was 102 % of control and the T/C (dose: 400.0 micrograms/kg/injection, schedule: Q01DX009 (ip), vehicle: saline + alcohol) was 114 % of control.

O=C(CC1=NC2NN(c3ccccc3)C(=O)C2=C1CC(=O)c1cccc2ccccc12)c1cccc2ccccc12 (stereo unspecified) was tested, and the T/C (dose: 50.0 mg/kg/injection, schedule: Q01DX005 (ip), vehicle: saline with Tween-80) was 107 % of control, the T/C (dose: 100.0 mg/kg/injection, schedule: Q01DX005 (ip), vehicle: saline with Tween-80) was 107 % of control and the T/C (dose: 200.0 mg/kg/injection, schedule: Q01DX005 (ip), vehicle: saline with Tween-80) was 107 % of control.

In the case of Fc1c(F)c(C(F)(F)F)c(F)c(F)c1-n1nnc(-c2ccccc2)n1, the T/C [4] is reported as 99 % of control, the T/C [5] is reported as 96 % of control and the T/C [6] is reported as 100 % of control.

In the case of Cc1ccc(S(=O)(=O)N/N=C/c2cccs2)cc1, the T/C (dose: 50.0 mg/kg/injection, schedule: Q01DX009 (ip), vehicle: saline with Tween-80) is reported as 95 % of control, the T/C (dose: 100.0 mg/kg/injection, schedule: Q01DX009 (ip), vehicle: saline with Tween-80) is reported as 87 % of control and the T/C (dose: 200.0 mg/kg/injection, schedule: Q01DX009 (ip), vehicle: saline with Tween-80) is reported as 93 % of control. For the same compound, the T/C (dose: 400.0 mg/kg/injection, schedule: Q01DX009 (ip), vehicle: saline with Tween-80) was 102 % of control.

With C=C(Cl)CC(N)C(=O)O (stereo unspecified) the T/C [4] was 104 % of control and the T/C [5] was 104 % of control.

For CC(C)(C)N1CC1CNC(=O)C(=O)NCC1CN1C(C)(C)C (stereo unspecified), the T/C (dose: 3.12 mg/kg/injection, schedule: Q01DX009 (ip), vehicle: saline with Tween-80) was 165 % of control, the T/C (dose: 6.25 mg/kg/injection, schedule: Q01DX009 (ip), vehicle: saline with Tween-80) was 194 % of control and 203 % of control and the T/C (dose: 12.5 mg/kg/injection, schedule: Q01DX009 (ip), vehicle: saline with Tween-80) was 256 % of control and 277 % of control. The T/C (dose: 25.0 mg/kg/injection, schedule: Q01DX009 (ip), vehicle: saline with Tween-80) was 177 % of control.

In the case of COc1cc(OC)c(/C=N/Nc2cc(C)c3ccc(OC)cc3n2)c(OC)c1, the T/C [4] is reported as 105 % of control, the T/C [5] is reported as 113 % of control and the T/C [6] is reported as 114 % of control.

With CCCCCCC[CH2][Sn]([CH2]C)([CH2]C)[O]C(C)=O the T/C (dose: 0.25 mg/kg/injection, schedule: Q01DX009 (ip), vehicle: saline with Tween-80) was 122 % of control.

O=C(C[N+](=O)[O-])OCc1ccccc1 was tested, and the T/C (dose: 12.5 mg/kg/injection, schedule: Q01DX009 (ip), vehicle: other) was 101 % of control, the T/C (dose: 25.0 mg/kg/injection, schedule: Q01DX009 (ip), vehicle: other) was 106 % of control and the T/C (dose: 50.0 mg/kg/injection, schedule: Q01DX009 (ip), vehicle: other) was 113 % of control. The T/C (dose: 100.0 mg/kg/injection, schedule: Q01DX009 (ip), vehicle: other) was 103 % of control.

Cc1ccc(S(=O)(=O)N/N=C/c2c(Cl)nc3sccn23)cc1 was tested, and the T/C (dose: 100.0 mg/kg/injection, schedule: Q01DX001 (ip), vehicle: Klucel (hydroxypropylcellulose) (HPC)) was 111 % of control, the T/C (dose: 200.0 mg/kg/injection, schedule: Q01DX001 (ip), vehicle: Klucel (hydroxypropylcellulose) (HPC)) was 108 % of control and the T/C (dose: 400.0 mg/kg/injection, schedule: Q01DX001 (ip), vehicle: Klucel (hydroxypropylcellulose) (HPC)) was 111 % of control.

Source: PubChem BioAssay AID330 (DTP/NCI, 2004)
